Results reported in US12410220B2, “Modulation of mammalian cell lineage by synthetic immodulins” (priority 2021, dated 2025).
Like-named read-outs stand apart in the source and are kept apart here. Marks after values point to notes of the source that are not given here. Ends that are not written are not given here. Peptide text beside a SMILES is read from it. * marks the point of attachment. RG108 = O=C1c2ccccc2C(=O)N1[C@@H](Cc1c[nH]c2ccccc12)C(=O)*

How the values were obtained:
[1] = test system: Pancreatic protease Type I; experiment: Experiment 5A peptide stability to protease degradation; format: in vitro ADME; details: 20 minutes at 37 degrees C, read-out: percentage of surviving peptide after protease treatment
Description: Duplicate wells per dilution point in a 96-well NTA-coated plate (G-Biosciences, St. Louis, MO) charged with ferric chloride were adsorbed with 2 ug imm3N1V (V-nephrilin) or immX3N1 (sV-nephrilin) peptide per well for 30 min at room temperature, washed, then incubated with 100 ul/well of 8 or 2 μg/ml protease (Sigma Catalog #P4630, Pancreatic protease Type I) for 20 minutes at 37 degrees C. Plates were washed with PBS buffer and the remaining peptide bound was measured using an in-house calibrated anti-immodulin ELISA (rabbit polyclonal #2501). The percentages of surviving peptide after 8 or 2 μg/ml protease treatment were, respectively: V-nephrilin (imm3N1V): 57.6±2.3% and 79.0±0.7%; sV-nephrilin (immX3N1): 75.1±2.8% and 90.4±3.4% (p<0.001 at both concentrations). Thus, the immX tripeptide extension at the C-terminus using D-amino acids improved peptide stability to protease degradation.

[2] = test system: rat scald-endotoxemia model; experiment: Experiment 5B rat scald-endotoxemia model; format: in vivo, Sprague Dawley rats; details: for Change in body weight (Pct vs Day 1): Day 5; for Respiratory distress (Gp. “S” = 100): Day 8, 4 hours after LPS; for Wet/dry lung weight (corrected for body weight): Day 8, after LPS 2.5 mg/kg ip
Description: Experiment 5B. This study explores the effect of immX extensions on sV-nephrilin (SEQ ID NO:31) vs V-nephrilin, as well as in a longer peptide also containing the immX extension (Traumatin-3N1A: SEQ ID NO:35) on in vivo efficacy in a rat scald-endotoxemia model. Animals were treated with peptides using a widely used protocol previously described (see, for example, U.S. Pat. No. 10,369,191). Adult Sprague Dawley rats of both sexes (250-300 gm, Charles River Laboratories, Wilmington, MA, USA) were injected with peptide plus equimolar ferric iron once daily by subcutaneous bolus injection, days 1-7; Treatment group sizes were (n=6): group S=sham-treated; group B=burn+vehicle; group V=burn+1 mg/kg V-nephrilin (V); group sV=burn+1 mg/kg sV-nephrilin (immX3N1sV); group T=burn+1 mg/kg Traumatin-3N1A. The first dose was administered after completion of the scald procedure. Injection volume was 400 uL. Control animals received the same volume of vehicle. On Day 8, animals received a single intraperitoneal injection of 2.5 mg/kg lipopolysaccharide (LPS; Sigma Cat #L-2880) and animals were then monitored by oximeter (MouseOx, Starr Life Sciences) for 4 hours, when respiratory distress (breath distension*breaths/min) was assessed relative to baseline. This was followed by sacrifice and tissue collection as in the published protocol, except that bronchoalveolar lavage (BAL) was collected and cells were recovered from BAL by centrifugation. These cells were stained with fluorescently-labeled antibodies for flow cytometry in order to ascertain granulocyte counts, as shown below. Results of the peptide comparison are presented in the table below. *p<0.05 vs “B” control. #p<0.05 vs “V” group.

[3] = Ferric iron-binding assay of biotinylated immodulin peptides; details: N-terminally biotinylated peptide, 400 ng per well, 60 min room temperature; immX3AVD = 100
Source text: N-terminally biotinylated versions of the peptides listed below were used in ferric iron-binding assays involving either an Alexa488-labeled streptavidin protocol (Binding Assay 1) or FITC-NTA assay (Binding Assay 2). Fluorescence was standardized to binding with immX3AVD control peptide (100) and the average of multiple experiments using both protocols is shown. P values are shown relative to the control immX3AVD peptide (**<0.05). D-amino acid residues are underlined in the sequences and the extension tripeptide of immX peptides is shown in bold font. Binding Assay 1 was done as follows: NTA coated 96-well plates (G-Biosciences, St. Louis, MO) were charged with ferric chloride and contacted with equimolar biotinylated peptide: streptavidin-A488 complex (400 ng peptide per well) for 60 min at room temperature, washed with phosphate-buffered saline (PBS) and read at 525 nm in a fluorescence counter. Binding Assay 2 was done as follows: Streptavidin coated 96-well plates (G-Biosciences, St. Louis, MO) were contacted with 400 ng peptide per well in PBS buffer for 60 minutes at room temperature, washed in PBS, then contacted with FITC-NTA (TRC, Toronto, Canada) complexed with equimolar ferric chloride (10× molar equivalent per well) for 60 min at room temperature, washed with PBS and read at 525 nm in a fluorescence counter.

[4] = test system: THP1-Dual monocytes; experiment: THP1-Dual monocyte differentiation assay, PMA protocol; format: cell-based, human; details: peptide 330 nM, 24 hours; for CD169+ (AU): relative to immX3AVD = 100
Description: (§1) Mammalian cell differentiation assays using THP1-Dual monocytes reporter cell line (Invivogen Inc, San Diego, CA) seeded at 2×10e5 cells per well in 96-well plates and cultured at 37 degrees C. in RPMI-1640 growth medium plus 10% fetal bovine serum and 1% penicillin/streptomycin, then treated for 24 hours with either 100 ng/ml Phorbol 12-myristate 13-acetate (PMA protocol; Cayman Chemical Company, Ann Arbor, MI) or a mixture of IL-4 (100 ng/ml), GM-CSF (100 ng/ml), TNF-alpha (20 ng/ml) and ionomycin (200 ng/ml) (Cytokine protocol; Peprotech, Rocky Hill, NJ). Peptide (330 nM) was then added, and incubation continued for an additional 24 hours. Culture supernatants were then assayed for CCL22. Plates with adherent cells were washed with PBS and assayed for immunoreactivity of surface markers such as CD169, Clec9a, Clec12a or MHCII using fuorescent tag- or biotin-labeled anti-human antibodies purchased from Miltenyi Biotec (Auburn, CA) and a relevant secondary detection reagent, or by fluorescence counts.

[5] = test system: THP1-Dual monocytes; experiment: THP1-Dual monocyte differentiation assay, cytokine protocol; format: cell-based, human; details: peptide 330 nM, 24 hours, relative to immX3AVD = 100
Description: as §1

[6] = Experiment 4D binding to FITC-labelled heparin; details: biotinylated peptide 1 ug/well; 1 ug FITC-labelled heparin, 90 minutes
Description: (§2) Streptavidin-coated 96-well plates (G-Biosciences, St. Louis, MO) were pre-treated with biotinylated peptides [see Example 1 for key] at 1 ug/well, at room temperature for 60 minutes. The plate was washed with PBS buffer and then 1 ug FITC-labelled heparin or hyaluronic acid in 100 uL PBS buffer was added per well (all tests in quadruplicate). Incubation proceeded for 90 minutes at room temperature, followed by two PBS washes. The plate was read in a standard laboratory fluorometer (488/525 nm exitation/[…]) and the counts normalized for immX3 peptide binding=100. Values statistically above background are shown in bold font. **p<0.05 versus immX3AVD.

[7] = Experiment 4D binding to FITC-labelled hyaluronic acid; details: biotinylated peptide 1 ug/well; 1 ug FITC-labelled hyaluronic acid, 90 minutes
Description: as §2

[8] = test system: THP1-Dual monocytes; experiment: THP1-Dual differentiation assay, immX3 peptide plus helper or inhibitor molecule; format: cell-based, human; details: immX3 peptide (330 nM) in all samples plus helper at the concentration given; immX3 with buffer = 100.0
Description: as §1
The THP1-Dual cell differentiation assay was carried out as described above in Example 2, using immX3 peptide (330 nM) in all samples plus the indicated helper or inhibitor molecule. AU=arbitrary ELISA units. **p<0.01.

[9] = test system: A375 cells; experiment: A375 cell viability (CellTiterGlo); format: cell-based; details: 72 hours
Description: Immune modulation functions of immodulin peptides have great potential untility in the field of cancer. A375 cell line was obtained from American Type Culture Collection (ATCC). They were grown in a T-75 flask in DMEM Medium containing 10% fetal bovine serum and penicillin-streptomycin at 37° C. in a humidified, 5% CO2 incubator. Cells (100 µl, 2,000 cells/well) were plated in a 96-well plate and incubated overnight at 37° C. in a humidified, 5% CO2 incubator. Next day, 10 µl/well of compounds were added (quadruplicate wells). After 72 hour incubation with the compound, cell viability was measured in a luminometer after the addition of 100 IL/well CellTiterGlo reagent (Promega Inc, Madison, WI) as recommended by the manufacturer. Anti-cancer activity of immodulin peptides on A375 cells: A 96-well plate was seeded with 2,000 A375 cells per well in DMEM medium containing 10% FBS and PenStrep. After 24 hrs at 37 deg C., compounds and peptides were added (each treatment done in quadruplicate). After a further 72 hours incubation, 100 μL/well of CTG assay reagent purchased from Promega Inc. (Madison, WI) was added. Plate was read after 10 minutes, as recommended by the manufacturer. Peptides were added at 2 uM. The results of this experiment are shown below, expressed as percent survival of A375 cells.

[10] = Day 1, burn + 1 mg/kg peptide plus equimolar ferric iron, subcutaneous once daily
[11] = burn + 1 mg/kg peptide plus equimolar ferric iron, subcutaneous once daily
[12] = burn + 1 mg/kg peptide days 1-7
[13] = Day 8, after LPS, burn + 1 mg/kg peptide days 1-7

| Ferric iron binding, fluorescence standardized to immX3AVD control peptide (100), Avg ± SD [3] | Compound | remaining at 20 min ([1]; 2 μg/ml protease) [%] | remaining at 20 min ([1]; 8 μg/ml protease) [%] | Plasma albumin mg/ml (24 hr IR) [2, 10] | Change in body weight (Pct vs Day 1) [2, 11] | Respiratory distress (Gp. “S” = 100) [2, 12] | Wet/dry lung weight (corrected for body weight) [2, 12] | BAL His48+ granulocytes (FITC units) [2, 13] | CD169+ (AU) [4] [AU] | other results |
| --- | --- | --- | --- | --- | --- | --- | --- | --- | --- | --- |
|  | RGVTEDYLRLETLVQKVVSKGFYKKKQCRPSKGRKRGFCWAVD (cysteines drawn unpaired) [sV-nephrilin] | 90.4 ± 3.4 | 75.1 ± 2.8 | 7.4 ± 1.6* mg/ml | −5.1 ± 3.6* Pct | 203 ± 30*# | 7.07 ± 0.48* | 26.8 ± 4.0* FITC units |  | Plasma IL-6 (pg/ml) [2, 10]: 17.5 ± 9.3* pg/ml; BAL fluid IL1-beta (pg/ml) [2, 13]: 67.1 ± 16*# pg/ml; Plasma OHDG (ng/ml) [2, 13]: 1.31 ± 0.6* ng/ml; Plasma creatinine (mg/dL) [2, 13]: 0.73 ± 0.2* mg/dL |
| 100.0 | CC(C)[C@H](NC(=O)[C@H](C)NC(=O)[C@H](Cc1c[nH]c2ccccc12)NC(=O)[C@H](CS)NC(=O)[C@H](Cc1ccccc1)NC(=O)CNC(=O)[C@H](CCCNC(=N)N)NC(=O)[C@H](CCCCN)NC(=O)[C@H](CCCNC(=N)N)NC(=O)CNC(=O)[C@H](CCCCN)NC(=O)[C@H](CO)NC(=O)[C@@H]1CCCN1C(=O)[C@H](CCCNC(=N)N)NC(=O)[C@H](CS)NC(=O)[C@H](CCC(N)=O)NC(=O)[C@H](CCCCN)NC(=O)[C@H](CCCCN)NC(=O)[C@H](CCCCN)NC(=O)[C@H](Cc1ccc(O)cc1)NC(=O)[C@H](Cc1ccccc1)NC(=O)CNC(=O)[C@H](CCCCN)NC(=O)[C@@H](N)CCCCN)C(=O)N[C@@H](CC(=O)O)C(=O)O [immX3AVD] (H-KKGFYKKKQCRPSKGRKRGFCWAVD-OH; N-terminus and C-terminus assumed) |  |  |  |  |  |  |  | 100 | Clec12A(AU) [5]: 100 AU; Heparin binding, counts normalized for immX3 peptide binding=100 [6]: 100.0 ± 4.7; Hyaluronate binding, counts normalized for immX3 peptide binding=100 [7]: 100.0 ± 22.8 |
|  | CC(C)C[C@H](NC(=O)[C@H](Cc1ccc(O)cc1)NC(=O)[C@H](CC(=O)O)NC(=O)[C@H](CCC(=O)O)NC(=O)[C@@H](NC(=O)[C@@H](NC(=O)CNC(=O)[C@@H](N)CCCNC(=N)N)C(C)C)[C@@H](C)O)C(=O)N[C@@H](CCCNC(=N)N)C(=O)N[C@@H](CC(C)C)C(=O)N[C@@H](CCC(=O)O)C(=O)N[C@H](C(=O)N[C@@H](CC(C)C)C(=O)N[C@H](C(=O)N[C@@H](CCC(N)=O)C(=O)N[C@@H](CCCCN)C(=O)N[C@H](C(=O)N[C@H](C(=O)N[C@@H](CO)C(=O)N[C@@H](CCCCN)C(=O)NCC(=O)N[C@@H](Cc1ccccc1)C(=O)N[C@@H](Cc1ccc(O)cc1)C(=O)N[C@@H](CCCCN)C(=O)N[C@@H](CCCCN)C(=O)N[C@@H](CCCCN)C(=O)N[C@@H](CCC(N)=O)C(=O)N[C@@H](CS)C(=O)N[C@@H](CCCNC(=N)N)C(=O)N1CCC[C@H]1C(=O)N[C@@H](CO)C(=O)N[C@@H](CCCCN)C(=O)NCC(=O)N[C@@H](CCCNC(=N)N)C(=O)N[C@@H](CCCCN)C(=O)N[C@@H](CCCNC(=N)N)C(=O)NCC(=O)N[C@@H](Cc1ccccc1)C(=O)N[C@@H](CS)C(=O)N[C@@H](Cc1c[nH]c2ccccc12)C(=O)O)C(C)C)C(C)C)C(C)C)[C@@H](C)O [V-nephrilin] (H-RGVTEDYLRLETLVQKVVSKGFYKKKQCRPSKGRKRGFCW-OH; N-terminus and C-terminus assumed) | 79 ± 0.7 | 57.6 ± 2.3 | 7.9 ± 2.1 mg/mL | −9.8 ± 2.9 Pct | 349 ± 95 | 7.97 ± 0.76 | 28.9 ± 3.1* FITC units |  | Plasma IL-6 [2, 10]: 31.4 ± 19 pg/mL; BAL fluid IL1-beta [2, 13]: 112.8 ± 9.4 pg/mL; Plasma OHDG [2, 13]: 1.44 ± 1.0 ng/mL; Plasma creatinine [2, 13]: 0.91 ± 0.3 mg/dL |
| 97.5 ± 5.1 | KKGFYKKKQCRPSKGRKRGFCWRVD [immX3RVD] |  |  |  |  |  |  |  | 88.1 ± 4.2 | CCL22 ([4]; culture supernatant): 272.5 ± 35.7 pg/mL |
|  | Oc1c(C(Nc2nc3ccccc3s2)c2ccc(OC(F)F)cc2)ccc2cccnc12 (stereo not shown) [RIG-I agonist [b], reference compound] |  |  |  |  |  |  |  |  | CD169 (AU) [8]: 131.6 ± 4.6** AU; percent survival of A375 cells, RIG-I ag without peptide ([9]; RIG-I agonist 4 uM alone (No peptide)): 100.7% |
|  | (rg108)-KKGFYKKKQCRPSKGRKRGFCW (RG108-KKGFYKKKQCRPSKGRKRGFCW; cysteine pairing not given here) [imm3rg8, imm3 N-terminally conjugated with RG108] |  |  |  |  |  |  |  |  | percent survival of A375 cells, +RIG-I ag ([9]; peptide 2 uM plus RIG-I agonist 4 uM): 105.8%; percent survival of A375 cells, Buffer ([9]; peptide 2 uM, no RIG-I agonist): 89.9** percent |
